In the supplement of paper PMC10307832:

Legend:
Experiment in all cases: relative viability (nuclei count vs DMSO), 5 days (fraction); higher = more cells survive
[1] = compound: C1CCC(CC1)N(CCNCCC2=C3C(=C(C=C2)O)NC(=O)CO3)C(=O)CCNCCC4=CC(=C(C=C4)Cl)Cl [AZ505] + Cc1nc(Nc2ncc(C(=O)Nc3c(C)cccc3Cl)s2)cc(N2CCN(CCO)CC2)n1 [Dasatinib] (partner 0.075 µM)
Outline: (§1)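 Lung cancer cell lines, seeded in 1536-well plates, were treated the following day by pin tool with a single drug or with five library-drug doses (not always all listed) in √10 steps on top of a fixed anchor-drug dose. Cells were fixed and nuclei stained in one step after 5 days, and nuclei were counted. Relative viability is the nuclei count for treated wells divided by that for vehicle wells, reported as medians of duplicate plates.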

[2] = compound: Cn1c(=O)n(-c2ccc(C(C)(C)C#N)cc2)c2c3cc(-c4cnc5ccccc5c4)ccc3ncc21 [Dactolisib] + CC(C)C[C@H](NC(=O)[C@H](Cc1ccccc1)NC(=O)c1cnccn1)B(O)O [Bortezomib] (partner 0.002 µM)
Outline: as §1

[3] = compound: Cn1c(=O)n(-c2ccc(C(C)(C)C#N)cc2)c2c3cc(-c4cnc5ccccc5c4)ccc3ncc21 [Dactolisib] + Cc1cc(Nc2cc(N3CCN(C)CC3)nc(Sc3ccc(NC(=O)C4CC4)cc3)n2)n[nH]1 [Tozasertib] (partner 0.1 µM)
Outline: as §1

[4] = compound: Cn1c(=O)n(-c2ccc(C(C)(C)C#N)cc2)c2c3cc(-c4cnc5ccccc5c4)ccc3ncc21 [Dactolisib] + Nc1nc2[nH]cc(CCc3ccc(C(=O)N[C@@H](CCC(=O)O)C(=O)O)cc3)c2c(=O)[nH]1 [Pemetrexed] (partner 0.2 µM)
Outline: as §1

Cell Line	relative viability ([1]; first compound 0.08 µM)	relative viability ([1]; first compound 0.253 µM)	relative viability ([1]; first compound 0.8 µM)	relative viability ([1]; first compound 2.53 µM)	relative viability ([1]; first compound 8 µM)	relative viability ([2]; first compound 0.002 µM)	relative viability ([2]; first compound 0.006325 µM)	relative viability ([2]; first compound 0.02 µM)	relative viability ([2]; first compound 0.06325 µM)	relative viability ([2]; first compound 0.2 µM)	relative viability ([3]; first compound 0.002 µM)	relative viability ([3]; first compound 0.006325 µM)	relative viability ([3]; first compound 0.02 µM)	relative viability ([3]; first compound 0.06325 µM)	relative viability ([3]; first compound 0.2 µM)	relative viability ([4]; first compound 0.002 µM)	relative viability ([4]; first compound 0.006325 µM)	relative viability ([4]; first compound 0.02 µM)	relative viability ([4]; first compound 0.06325 µM)	relative viability ([4]; first compound 0.2 µM)
LCLC-97TM1	0.77	0.795	0.767	0.674	0.88	0.766	0.489	0.528	0.525	0.128	0.189	0.15	0.151	0.171	0.111	0.169	0.158	0.186	0.192	0.16
LCLC-103H	0.407	0.415	0.393	0.481	0.451	1.03	1.14	0.964	0.743	0.71	0.492	0.481	0.451	0.379	0.286	0.437	0.468	0.462	0.393	0.379
LOU-NH91	0.536	0.537	0.452	0.53	0.601	0.526	0.502	0.49	0.458	0.43	0.645	0.655	0.683	0.616	0.449	0.287	0.377	0.372	0.431	0.445
LU99A	–	0.475	0.618	0.48	0.536	1.12	0.903	0.543	0.366	0.249	0.265	0.257	0.283	0.224	0.185	0.152	0.197	0.2	0.178	0.18
LXF-289	0.231	0.189	0.169	0.249	0.181	1.07	1.03	1.07	0.971	0.648	0.236	0.189	0.226	0.182	0.136	0.921	0.886	0.964	1.02	0.619
NCI-H23	0.721	–	0.722	0.797	0.877	1.04	0.924	0.798	0.247	0.294	0.346	0.399	0.318	0.208	0.178	0.635	0.635	0.563	0.289	0.296
NCI-H322M	0.24	0.233	0.239	0.261	0.273	1.21	1.24	1.13	1.07	0.838	0.386	0.46	0.414	0.412	0.37	0.664	0.641	0.643	0.523	0.474
NCI-H441	0.35	0.619	0.659	0.549	0.694	0.523	0.457	0.305	0.157	0.196	0.831	0.632	0.522	0.384	0.284	0.24	0.266	0.24	0.221	0.25
NCI-H460	0.529	0.416	0.557	0.314	0.59	1.28	1.11	0.984	0.106	0.0739	0.38	0.396	0.387	0.257	0.139	0.0654	0.0618	0.0641	0.0892	0.0591
NCI-H520	0.198	0.217	0.181	0.229	0.26	0.397	0.715	0.263	0.121	0.134	0.425	0.468	0.365	0.196	0.218	0.537	0.506	0.364	0.213	0.115
NCI-H596	0.605	0.577	0.591	0.657	0.56	0.939	0.989	0.908	0.769	0.357	0.942	0.751	0.632	0.35	0.32	0.457	0.428	0.513	0.41	0.401
NCI-H647	0.233	0.104	0.158	0.194	0.162	0.868	0.798	0.42	0.193	0.143	0.265	0.235	0.19	0.099	0.112	0.144	0.172	0.194	0.154	0.101
NCI-H650	0.425	0.408	0.447	0.547	0.452	0.884	0.774	0.834	0.653	0.3	0.713	0.651	0.711	0.608	0.408	1	0.815	0.897	0.723	0.47
NCI-H661	0.862	0.932	0.731	0.958	0.964	0.659	0.87	0.67	0.397	0.288	0.345	0.366	0.345	0.381	0.353	0.823	0.932	0.854	0.498	0.515
NCI-H838	0.233	0.273	0.298	0.28	0.308	0.852	0.725	0.434	0.22	0.242	0.249	0.295	0.254	0.208	0.199	0.25	0.227	0.264	0.203	0.165
NCI-H1355	0.695	0.674	0.603	0.702	0.748	1.21	1.21	1.13	0.937	0.525	0.625	0.537	0.447	0.456	0.177	1.08	1.03	1.02	0.861	0.65
